Reference: patent publication US20230149419A1, “COMPOSITION FOR PREVENTING OR TREATING NEUROINFLAMMATORY DISEASES, COMPRISING CHLORPROMAZINE” (GliaCellTech Inc., priority 2020, published 2023)

How the values were obtained:
[1] = system: primary microglia from Psen2^N141I/+ mice with Alzheimer's disease; assay: LPS-induced cytokine mRNA expression in primary microglia (qRT-PCR), Psen2 mutation; format: cell-based, mouse
Description: (§1) Primary microglia were obtained from wild-type mice and Psen2^N141I/+ mice with Alzheimer's disease. Specifically, brains were excised from neonatal mice 1 to 3 days old and cells were obtained therefrom. The cells were cultured in Dulbecco's modified Eagle's medium (DMEM, Corning) supplemented with 10% heat-inactivated fetal bovine serum (HI-FBS, Hyclone) and 1% penicillin-streptomycin (Hyclone). Primary microglia were isolated in vitro by tapping after 12 days of culturing. Purity of primary microglia was estimated by immunostaining with an antibody against Iba-1, which is a microglial marker.
(§2) In this regard, the primary microglia were preincubated with or without 0.5 μM chlorpromazine for 30 min before LPS treatment. Anti-inflammatory effects were compared and analyzed between the test groups.
The culture of each group was measured for microglial mRNA expression levels of the target cytokines by qRT-PCR (quantitative RT-PCR). Specifically, RNA was isolated from the microglia and cDNA was synthesized using an ImProm-II Reverse Transcriptase kit (Promega). PCR primers were commercially available (Cosmo Genetech). qRT-PCR was performed using Taq Polymerase (Invitrogen) and mouse cDNA-specific primers listed in Table 6, below. In addition, TOPreal™ qPCR 2×PreMIX (SYBR Green with low ROX) (Enzynomics) was used. Amplification (50 cycles) was performed for 50 cycles with all primers in a CFX96 Real-Time System (Bio-Rad). Actb was used as the reference genes for normalization.

wild-type mice [2] = assay: Y-maze test, wild-type mice; format: in vivo, mouse; conditions: for Y-maze Alternation % / Y-maze No. of Arm entry: chlorpromazine 0.25 mg/kg i.p., mean±SEM
Description: (§3) Specifically, the Y-maze was used to evaluate spatial working memory. The assay was conducted in white plastic arms of a Y-shaped maze. A mouse was placed in the center of the maze and was allowed to freely explore the arms for 5 min. The experiment was recorded with EthoVision software (Noldus). The number of arm entries and the number of triads were analyzed to calculate the percentage of alternation by dividing the number of three consecutive arm entries (triads) by the number of possible triads×100 (total arm entries−2).
(§4) An examination was made to see whether LPS-induced inflammation causes memory decline and chlorpromazine reverses the LPS-induced inflammation in disease animal models. To analyze memory and behavior performance, the Y-maze test as in Example 4 was conducted.

[3] = system: primary microglia from wild-type mice; assay: LPS-induced inflammatory cytokine secretion in primary microglia (ELISA), wild-type; format: cell-based, mouse
Description: as §1, §2

[4] = system: REV-ERBα protein in primary microglia from wild-type mice; assay: REV-ERBα protein expression in primary microglia (western blotting), wild-type; format: cell-based, mouse
Description: Effects were analyzed in the experimental group not treated with chlorpromazine on the obtained microglia and the experimental group treated with chlorpromazine at a dose of 0.5 μM. For analysis of REV-ERBα protein expression levels, western blotting was carried out. Specifically, primary microglia were lysed in a 1% Triton X-100 lysis buffer (1% Triton X-100, 250 mM sucrose, 1 mM EDTA, 1 mM phenylmethylsulfonyl fluoride, and 50 mM NaCl in 20 mM Tris-HCl, pH 7.4) with 1×protease and phosphatase inhibitors (Thermo Fisher Scientific) and 0.1 M dithiothreitol (Sigma-Aldrich). The cell lysates were separated by sodium dodecyl sulfate-polyacrylamide gel electrophoresis and transferred to polyvinylidene fluoride membranes. The membranes were incubated with the appropriate primary antibodies, and bound antibodies were detected by species-specific, horseradish peroxidase-conjugated secondary antibodies. Chemiluminescence detection was performed to analyze the protein bands of interest.

wild-type mice [5] = assay: Serum cytokine levels after low-concentration LPS injection, wild-type mice
Description: (§5) To investigate neuroinflammation at various concentrations of LPS, blood was extracted from cheek veins in the wild-type mice in group 2 and the mouse model of Alzheimer's disease in group 4 20 hours after the injection of LPS. The sera obtained by centrifugation were quantitatively analyzed for IL-6, TNFα, CCL2, CXCL1, and CCL5 by using ELISA kit (R&D Systems) according to the manufacturer's instruction. In addition, the same procedure was conducted for the wild-type mice without LPS injection of group 1 and the Psen2^N141I mutation mouse model of Alzheimer's disease of group 3 to obtain sera which were then analyzed for the proteins by using the ELISA kit according to the manufacturer's instruction.
(§6) The wild-type mice and the Psen2 mutation mouse model of Alzheimer's disease obtained in Example 1 were intraperitoneally injected with chlorpromazine (0.25 mg/body weight kg) at 14:00 and then with such a low concentration of LPS (0.35 μg/kg) as to be ineffective for inflammation in wild-type mice at 18:00 (Zeitgeber time light-on at 11:00 and 07:00). After 20 hours, the mice were monitored for inflammatory responses and memory behavior. The concentration of chlorpromazine (0.25 mg/body weight kg) used in this assay is tens- to hundreds-fold lower than those conventionally used as an antipsychotic (25 mg/injection, 3 times/day).
(§7) After the experiment conducted as in the scheme of FIG. 11A, the wild-type and the Psen2^N141I/+ Alzheimer's disease mice, both intraperitoneally injected with LPS, were analyzed for inflammatory response according to chlorpromazine treatment as measured for serum levels of the circadian clock-controlled cytokines (IL-6, CXCL1, CCL2, and CCL5) by ELISA as in Example 2.

[6] = system: Nr1d1 mRNA in primary microglia from Psen2 mouse model of Alzheimer's disease; assay: Nr1d1 mRNA expression in primary microglia (qRT-PCR), Psen2 mutation; format: cell-based
Description: Effects were analyzed in the experimental group not treated with chlorpromazine on the obtained microglia and the experimental group treated with chlorpromazine at a dose of 0.5 μM.

[7] = system: Psen2^N141I/+ Alzheimer's disease mice; assay: Serum cytokine levels after low-concentration LPS injection, Psen2 mutation mice
Description: as §5, §6, §7

[8] = system: Psen2 mutation mouse model of Alzheimer's disease; assay: Y-maze test, Psen2 mutation mouse model of Alzheimer's disease; format: in vivo; conditions: for Y-maze Alternation % / Y-maze No. of Arm entry: chlorpromazine 0.25 mg/kg i.p., mean±SEM
Description: as §3, §4

[9] = system: elderly with schizophrenia; conditions: taken for a long time at the current market dose; cited from earlier work
[10] = KI/+ microglia, LPS 1 μg/mL 12 h, 0.5 μM chlorpromazine (Group 8)
[11] = wild-type/LPS(+)/CPZ(+) (Group 44), LPS 0.35 μg/kg
[12] = wild-type/LPS(−)/CPZ(+) (Group 42)
[13] = WT microglia, LPS 1 μg/mL 12 h, preincubated 0.5 μM chlorpromazine 30 min (Group 6)
[14] = chlorpromazine 0.25 mg/kg i.p., LPS 0.35 μg/kg i.p., 20 h after LPS (Group 38)
[15] = Alzheimer's disease model mice, chlorpromazine 0.25 mg/kg i.p., LPS 0.35 μg/kg i.p., 20 h after LPS (Group 40)
[16] = Alzheimer's disease model/LPS(+)/CPZ(+) (Group 48), LPS 0.35 μg/kg
[17] = Alzheimer's disease model/LPS(−)/CPZ(+) (Group 46)

With `CN(C)CCCN1c2ccccc2Sc2ccc(Cl)cc21` [CPZ, 3-(2-chloro-10H-phenothiazin-10-yl)-N,N-dimethyl-propan-1-amine] the “Inflammatory cytokine expression Ccl2 (mRNA)” value [1, 10] was 0.670 fold, the “Inflammatory cytokine expression Ccl5 (mRNA)” value [1, 10] was 0.730 fold and the “Inflammatory cytokine expression Cxcl1 (mRNA)” value [1, 10] was 0.692 fold. The “Inflammatory cytokine expression Il-6 (mRNA)” value [1, 10] was 0.538 fold, the “Inflammatory cytokine expression Tnf (mRNA)” value [1, 10] was 1.020 fold and the “mRNA expression of IL-6, CXCL1, CCL2, and CCL5 (in words)” value ([1]; Psen2 mutation microglia, groups 7 vs 8, chlorpromazine 0.5 μM, LPS) was “decrease the mRNA expression”. For the same compound, the “mRNA level of TNF-α (in words)” value ([1]; across all the groups (WT and KI/+ microglia), LPS) was “no impacts”, the “memory performance, arm alternation in Y-maze (in words)” value (wild-type mice [2]; wild-type mice, chlorpromazine alone (group 42) or with LPS (group 44)) was “normal memory performance” and the “Y-maze Alternation %” value (wild-type mice [2]; [11]) was 64.333 ± 3.175%. The “Y-maze No. of Arm entry” value (wild-type mice [2]; [11]) was 17.889 ± 1.136, the “Y-maze Alternation %” value (wild-type mice [2]; [12]) was 66.667 ± 4.681% and the “Y-maze No. of Arm entry” value (wild-type mice [2]; [12]) was 20.167 ± 1.537. For the same compound, the “Inflammatory cytokine secreted CCL2” value [3, 13] was 948.716 pg/mL, the “Inflammatory cytokine secreted CCL5” value [3, 13] was 948.716 pg/mL and the “Inflammatory cytokine secreted CXCL1” value [3, 13] was 937.727 pg/mL. The “Inflammatory cytokine secreted TNF-α” value [3, 13] was 1414.237 pg/mL, the “Inflammatory cytokine secreted IL-6” value ([3]; WT microglia, LPS 1 μg/mL 12 h, preincubated 0.5 μM chlorpromazine 30 min (Group 6), mean) was 2228.546 pg/mL and the “protein levels of circadian clock-controlled cytokines (in words)” value ([3]; wild-type microglia, groups 5 and 6, chlorpromazine 0.5 μM, LPS) was “not affected”. The REV-ERBα protein expression ([4]; WT microglia, no LPS, 0.5 μM chlorpromazine (Group 28), mean±SEM) was 0.956 ± 0.096 fold, the “REV-ERBα protein expression level (in words)” value ([4]; wild-type microglia, group 28) was “no effect” and the “Inflammatory cytokine secreted IL-6 (serum)” value (wild-type mice [5]; chlorpromazine 0.25 mg/kg i.p. 4 h before LPS 0.35 μg/kg i.p., 20 h after LPS (Group 38)) was 68.214 pg/mL. For the same compound, the “Inflammatory cytokine secreted CCL2 (serum)” value (wild-type mice [5]; [14]) was 117.032 pg/mL, the “Inflammatory cytokine secreted CCL5 (serum)” value (wild-type mice [5]; [14]) was 80.808 pg/mL and the “Inflammatory cytokine secreted CXCL1 (serum)” value (wild-type mice [5]; [14]) was 172.313 pg/mL. For the same compound, the “Inflammatory cytokine secreted TNF-α (serum)” value (wild-type mice [5]; [14]) was 62.634 pg/mL, the “production of the circadian clock-controlled cytokines in serum (in words)” value (wild-type mice [5]; groups 37 and 38, LPS 0.35 μg/kg) was “did not affect” and the “Nr1d1 mRNA expression” value ([6]; KI/+ microglia, no LPS, 0.5 μM chlorpromazine (Group 30), mean±SEM) was 0.976 ± 0.094 fold. For the same compound, the “Nr1d1 mRNA expression level (in words)” value ([6]; Psen2 mutation microglia, group 30, chlorpromazine 0.5 μM) was “restored to the level in the wild-type group”, the “Inflammatory cytokine secreted CCL2 (serum)” value [7, 15] was 107.403 pg/mL and the “Inflammatory cytokine secreted CCL5 (serum)” value [7, 15] was 93.240 pg/mL. For the same compound, the “Inflammatory cytokine secreted CXCL1 (serum)” value [7, 15] was 173.999 pg/mL, the “Inflammatory cytokine secreted IL-6 (serum)” value [7, 15] was 44.280 pg/mL and the “Inflammatory cytokine secreted TNF-α (serum)” value [7, 15] was 71.248 pg/mL. The “production of the circadian clock-controlled cytokines in serum (in words)” value ([7]; Psen2 mutation mice, group 40 vs 39, LPS 0.35 μg/kg) was “remarkably repressed”, the “Y-maze Alternation %” value [8, 16] was 72.000 ± 3.964% and the “Y-maze No. of Arm entry” value [8, 16] was 16.500 ± 1.368. For the same compound, the “Y-maze Alternation %” value [8, 17] was 77.714 ± 4.699%, the “Y-maze No. of Arm entry” value [8, 17] was 18.286 ± 1.063 and the “LPS-induced memory decline, arm alternation in Y-maze (in words)” value ([8]; LPS-injected Psen2 mutation mouse model, group 48) was “sufficient recovery”. For the same compound, the “memory performance, arm alternation in Y-maze (in words)” value ([8]; Psen2 mutation mice, chlorpromazine alone vs no drug treatment) was “no significant different memory performance” and the “side effect on mortality” value [9] was “increasing the mortality rate”.
